How the values were obtained:
[1] = target: T1, GLT8D1 (recombinant secretory glycosyltransferase 8 domain-containing protein 1) (Homo sapiens, UniProt Q68CQ7); assay: intrinsic tryptophan fluorescence DSF (nanoDSF); format: binding; conditions: 0.1 mM ligand, 1 mM MnCl2, 50 mM Tris-HCl pH 7.5; shift relative to Mn2+ alone
T1 construct: lumenal catalytic domain 52-371; GFP fusion kept; secreted from HEK293-F cells; N-glycosylated; expected mass 67,624 Da
T1 sequence (Q68CQ7 52-371): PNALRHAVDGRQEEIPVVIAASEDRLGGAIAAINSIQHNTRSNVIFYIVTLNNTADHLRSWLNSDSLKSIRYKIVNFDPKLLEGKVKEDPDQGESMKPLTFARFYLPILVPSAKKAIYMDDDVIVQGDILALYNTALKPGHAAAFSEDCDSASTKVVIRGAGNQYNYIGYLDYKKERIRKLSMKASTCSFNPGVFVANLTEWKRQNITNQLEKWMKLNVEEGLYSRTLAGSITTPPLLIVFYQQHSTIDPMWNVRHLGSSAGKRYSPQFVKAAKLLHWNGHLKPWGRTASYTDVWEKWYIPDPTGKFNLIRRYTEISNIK

[2] = target: T1, GLT8D1 (recombinant secretory glycosyltransferase 8 domain-containing protein 1); assay: UDP-Glo transferase assay; product by LC-MS/MS; format: biochemical; conditions: acceptor, 20 mM; UDP-Gal donor, 5 mM MnCl2, 50 mM Tris-HCl pH 7.5

Row | SMILES | ΔTm [1] | UDP-Glo transferase assay; product by LC-MS/MS [2]
1 | O=C(O)[C@H]1O[C@H](OP(=O)(O)OP(=O)(O)OC[C@H]2O[C@@H](n3ccc(=O)[nH]c3=O)[C@H](O)[C@@H]2O)[C@H](O)[C@@H](O)[C@@H]1O [UDP-GlcA] | + 4.9 °C | 
2 | CC(=O)N[C@H]1C(O)O[C@H](CO)[C@H](O)[C@@H]1O (stereo partly drawn) [GalNAc] |  | With UDP-Gal as donor some transferase reaction was detected towards GalNAc and GlcNAc
3 | Nc1nc2c(ncn2[C@@H]2O[C@H](COP(=O)(O)OP(=O)(O)O)[C@@H](O)[C@H]2O)c(=O)[nH]1 [GDP] | + 7.7 °C | 
4 | O=c1ccn([C@@H]2O[C@H](COP(=O)(O)OP(=O)(O)O)[C@@H](O)[C@H]2O)c(=O)[nH]1 [UDP] | + 11.2 °C | 
5 | CC(=O)N[C@H]1[C@@H](OP(=O)(O)OP(=O)(O)OC[C@H]2O[C@@H](n3ccc(=O)[nH]c3=O)[C@H](O)[C@@H]2O)O[C@H](CO)[C@@H](O)[C@@H]1O [UDP-GlcNAc] | ~ 2 °C | 
6 | CC(=O)N[C@H]1C(O)O[C@H](CO)[C@@H](O)[C@@H]1O (stereo partly drawn) [GlcNAc] |  | With UDP-Gal as donor some transferase reaction was detected towards GalNAc and GlcNAc
7 | O=c1ccn([C@@H]2O[C@H](COP(=O)(O)OP(=O)(O)O[C@H]3OC[C@@H](O)[C@H](O)[C@H]3O)[C@@H](O)[C@H]2O)c(=O)[nH]1 [UDP-Xyl] | ~ 2 °C | 
8 | CC(=O)N[C@H]1[C@@H](OP(=O)(O)OP(=O)(O)OC[C@H]2O[C@@H](n3ccc(=O)[nH]c3=O)[C@H](O)[C@@H]2O)O[C@H](CO)[C@H](O)[C@@H]1O [UDP-GalNAc] | ~ 2 °C | 
9 | Nc1ccn([C@@H]2O[C@H](COP(=O)(O)O)[C@@H](O)[C@H]2O)c(=O)n1 [CMP] | + 1.3 °C | 

From paper PMC10709319, “Glycosyltransferase 8 domain-containing protein 1 (GLT8D1) is a UDP-dependent galactosyltransferase” (Scientific Reports, 2023)
